The values that follow come from ChEMBL document CHEMBL4342525, “Synthesis and Biochemical Evaluation of Noncyclic Nucleotide Exchange Proteins Directly Activated by cAMP 1 (EPAC1) Regulators” (J Med Chem, 2020).

Data set [1] deals with T1, Rap guanine nucleotide exchange factor 3 (Homo sapiens) (UniProt O95398).
T1 sequence (whole entry): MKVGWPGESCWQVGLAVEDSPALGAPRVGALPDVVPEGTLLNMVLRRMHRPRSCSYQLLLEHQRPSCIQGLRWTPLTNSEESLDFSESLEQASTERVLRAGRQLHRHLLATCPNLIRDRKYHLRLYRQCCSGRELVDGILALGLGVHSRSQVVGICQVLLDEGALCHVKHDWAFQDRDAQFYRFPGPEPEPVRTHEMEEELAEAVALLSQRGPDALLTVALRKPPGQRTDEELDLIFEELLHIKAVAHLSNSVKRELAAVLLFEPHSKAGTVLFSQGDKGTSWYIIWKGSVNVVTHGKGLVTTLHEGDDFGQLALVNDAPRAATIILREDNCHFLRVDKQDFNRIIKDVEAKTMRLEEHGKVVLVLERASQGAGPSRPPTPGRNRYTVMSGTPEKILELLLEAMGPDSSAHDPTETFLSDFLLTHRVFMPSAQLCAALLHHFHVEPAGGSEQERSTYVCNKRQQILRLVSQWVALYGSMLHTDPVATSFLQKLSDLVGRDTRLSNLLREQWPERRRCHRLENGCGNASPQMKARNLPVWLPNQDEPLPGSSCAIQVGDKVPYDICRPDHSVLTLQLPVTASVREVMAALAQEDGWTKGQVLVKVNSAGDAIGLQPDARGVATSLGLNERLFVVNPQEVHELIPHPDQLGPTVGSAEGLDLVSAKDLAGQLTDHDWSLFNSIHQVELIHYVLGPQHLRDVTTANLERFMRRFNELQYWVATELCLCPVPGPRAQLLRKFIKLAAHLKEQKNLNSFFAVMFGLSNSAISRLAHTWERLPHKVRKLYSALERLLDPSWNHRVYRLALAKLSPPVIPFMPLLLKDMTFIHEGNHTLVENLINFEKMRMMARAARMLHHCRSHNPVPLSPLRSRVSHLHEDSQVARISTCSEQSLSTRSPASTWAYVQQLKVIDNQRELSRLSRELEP
In words: Binding affinity to GST-tagged recombinant EPAC1 CNBD (169 to 318 residues) (unknown origin) expressed in Escherichia coli BL21 Star (DE3) assessed as relative fluorescence intensity incubated for 4 hrs by 8-NBD-cAMP competition binding assay relative to control. Also on record: concentration or dose not given beside the values.

Data set [2] deals with T1, Rap guanine nucleotide exchange factor 3 (Homo sapiens). In words: Activation of EPAC1 in HUVEC assessed as reduction in IL-6-promoted signaling by measuring pSTAT3 protein levels at 100 uM pre-incubated for 30 mins before IL6 and sIL6Ralpha stimulation for 5 hrs by Western blotting analysis. The format is cell-based. For orientation: In western blotting, separated proteins are transferred to a membrane and probed.

The target is the same in data set [3]. In words: Activation of EPAC1 (unknown origin) expressed in U2OS cells at 100 uM incubated for 10 mins using GST-RalGDS-RBD by Western blot analysis based active GTP-bound Rap1 pull down assay. The format is cell-based.
For data set [4] the target is unchanged. The data set can be described thus: Activation of EPAC1 in HUVEC assessed as reduction in IL-6-promoted signaling by measuring pAKT protein levels at 100 uM pre-incubated for 30 mins before IL6 and sIL6Ralpha stimulation for 5 hrs by Western blotting analysis. The format is cell-based.
The target is the same in data set [5]. In words: Activation of EPAC1 in HUVEC assessed as reduction in IL-6-promoted signaling by measuring VCAM1 protein expression at 100 uM pre-incubated for 30 mins before IL6 and sIL6Ralpha stimulation for 5 hrs by Western blotting analysis. The format is cell-based.
The target is the same in data set [6]. The data set can be described thus: Activation of EPAC1 in HUVEC assessed as reduction in IL-6-promoted signaling by measuring SELE protein expression at 100 uM pre-incubated for 30 mins before IL6 and sIL6Ralpha stimulation for 5 hrs by Western blotting analysis. The format is cell-based.
The target is the same in data set [7]. In words: Activation of EPAC1 in HUVEC assessed as reduction in IL-6-promoted signaling by measuring ICAM1 protein expression at 100 uM pre-incubated for 30 mins before IL6 and sIL6Ralpha stimulation for 5 hrs by Western blotting analysis. The format is cell-based.
For data set [8] the target is unchanged. In words: Activation of recombinant EPAC1 (149 to 881 residues) (unknown origin) assessed as stimulation of dissociation of fluorescent MANT-GDP from recombinant Rap1b at 10 uM in presence of excess nonfluorescent nucleotides by fluorescence based in-vitro GEF assay relative to cAMP.
For data set [9], the target named is T2, Rap guanine nucleotide exchange factor 3 (Homo sapiens, UniProt O95398).
T2 sequence (O95398 whole entry): T1 sequence (whole entry)
The data set can be described thus: Binding affinity to GST-tagged recombinant EPAC1 CNBD (169 to 318 residues) (unknown origin) expressed in Escherichia coli BL21 Star (DE3) incubated for 4 hrs by 8-NBD-cAMP competition binding assay.

Data set [10] addresses T1, Rap guanine nucleotide exchange factor 3 (Homo sapiens). In words: Activation of EPAC1 in HUVEC assessed as reduction in IL-6-promoted signaling by measuring pERK protein levels at 100 uM pre-incubated for 30 mins before IL6 and sIL6Ralpha stimulation for 5 hrs by Western blotting analysis. The format is cell-based.
Data set [11] can be described thus: Activation of PKA in human U2OS cells stably transfected with EPAC1 assessed as increase in VASP phosphorylation at 100 uM by Western blot analysis. The format is cell-based.

Molecules are shown by their SMILES. Calls of active or inactive are those of the source. No cut-off for these calls is given here.

Regarding `Cc1cc(C)c(S(=O)(=O)N2CCC(Oc3ccc4ccccc4c3)CC2)c(C)c1`, the Activity in data set [1] came to 105%. On the same count and under the same terms, with `Cc1ccc(S(=O)(=O)NC(=O)COc2ccc3ccc(Cl)cc3c2)c(C)c1` the figure was 66%. On the same count and under the same terms, with `Cc1cc(C)c(S(=O)(=O)NC(=O)C(F)Oc2ccc3ccccc3c2)c(C)c1` (stereo unspecified) the figure was 82%. Same read-out and setting: with `O=C(COc1ccc2ccccc2c1)NS(=O)(=O)c1cccc(-c2ccccc2)c1` the figure was 35%; with `Cc1cc(C)c(S(=O)(=O)NC(=O)CSc2ccc3ccccc3c2)c(C)c1`, 92%.

For the compound `Cc1cc(C)c(S(=O)(=O)NC(=O)CN2CCc3ccccc3C2)c(C)c1`, in [1], the Activity is 102%.

Take `O=C(COc1ccc2ccccc2c1)NS(=O)(=O)c1cccc(-c2ccoc2)c1`: the Activity in data set [1] was found to be 53%.

A word on the IC50: it is the concentration at which inhibition is half-maximal. As to `O=C(COc1ccc2ccccc2c1)NS(=O)(=O)c1ccc([N+](=O)[O-])c(F)c1`, the result in data set [2], in [4], in data set [5], in [6], in data set [7] and in data set [10] was inactive. For the same compound, the result in [3] and in data set [8] was Active. Besides, the IC50 in [9] came to 32.5 µM. For the same compound, the Activity in [1] is 81%; in data set [11], “Not Active”.

Regarding `Cc1cc(C)c(S(=O)(=O)NC(=O)COc2ccc3cccnc3c2)c(C)c1`, the Activity in data set [1] was found to be 92%.

For `Cc1cc(-c2ccco2)cc(S(=O)(=O)NC(=O)COc2ccc3ccccc3c2)c1`, the Activity in data set [1] stood at 40%. Turning to `Cc1cc(C)c(S(=O)(=O)NC(=O)CNc2cccc(Cl)c2)c(C)c1`, in data set [1], the Activity stood at 88%. On the same count and under the same terms, with `COc1ccc2ccc(OCC(=O)NS(=O)(=O)c3ccc([N+](=O)[O-])cc3OC)cc2c1` the figure was 24%. On the same count and under the same terms, to `Cc1ccc(S(=O)(=O)NC(=O)COc2ccc3cc(F)ccc3c2)c(C)c1` belongs 55%; to `Cc1cc(C)c(S(=O)(=O)NC(=O)COc2ccc3ccccc3c2)c(C)c1`, 81%; to `COc1ccc2ccc(OCC(=O)NS(=O)(=O)c3c(C)cc(C)cc3C)cc2c1`, 49%.

As for `Cc1cc(C)cc(S(=O)(=O)NC(=O)COc2ccc3ccccc3c2)c1`, the Activity in [1] turned out to be 38%.

As for `Nc1ccc(S(=O)(=O)NC(=O)COc2ccc3ccccc3c2)cc1F`, the outcome in data set [2], in data set [4], in data set [5], in data set [6], in data set [7] and in data set [10] was inactive. The outcome in data set [1] was inactive. For the same compound, the result in [3] and in data set [8] was Active. The Activity entry in [11] is “Not Active”. In the case of `Cc1cc(Br)cc(S(=O)(=O)NC(=O)COc2ccc3ccccc3c2)c1`, in data set [1], the Activity is 58%. Take `Cc1ccc(S(=O)(=O)NC(=O)COc2cccc3ccccc23)c(C)c1`: in [1], the Activity is 71%. Take `Cc1cc(-c2cncc(F)c2)cc(S(=O)(=O)NC(=O)COc2ccc3ccccc3c2)c1`: the Activity in data set [1] was 36%. With `Cc1ccc(S(=O)(=O)NC(=O)COc2ccc3[nH]ncc3c2)c(C)c1`, in [1], the Activity stood at 94%. As for `O=C(COc1ccc2ccccc2c1)NS(=O)(=O)c1ccc(F)cc1`, in data set [1], the Activity stood at 81%. Same read-out and setting: to `Cc1cc(C)c(S(=O)(=O)NC(=O)COc2ccc3c(c2)CCCC3)c(C)c1` belongs 77%; to `Cc1cc(C)c(S(=O)(=O)NCCOc2ccc3ccccc3c2)c(C)c1`, 105%; to `O=C(COc1ccc2ccccc2c1)NS(=O)(=O)c1ccccc1`, 49%. Still for that read-out and setting: with `O=C(COc1ccc2ccccc2c1)NS(=O)(=O)c1cccc([N+](=O)[O-])c1` the figure was 67%. Still for that read-out and setting: to `Cc1cc(C)c(S(=O)(=O)NC(=O)CNc2ccc3ccccc3c2)c(C)c1` belongs 97%; to `COc1cccc(S(=O)(=O)NC(=O)COc2ccc3ccccc3c2)c1`, 33%. Take `Cc1ccc(S(=O)(=O)NCCOc2ccc3ccccc3c2)c(C)c1`: the Activity in [1] stood at 81%.

For the compound `COC(=O)c1cccc(S(=O)(=O)NC(=O)COc2ccc3ccccc3c2)c1`, in data set [1], the Activity was found to be 71%. The same measure, in the same setting: with `COc1ccc(OC)c(S(=O)(=O)NC(=O)COc2ccc3ccccc3c2)c1` the figure was 72%. As for `Cc1cc(-c2ccnn2C)cc(S(=O)(=O)NC(=O)COc2ccc3ccccc3c2)c1`, the Activity in [1] is 34%. Same read-out and setting: to `CC(=O)c1c(OCC(=O)NS(=O)(=O)c2c(C)cc(C)cc2C)ccc2ccccc12` belongs 104%. Still for that read-out and setting: to `O=C(COc1ccc2ccccc2c1)NS(=O)(=O)c1cccc(F)c1` belongs 82%; to `COc1ccc2ccc(OCC(=O)NS(=O)(=O)c3cc(Cl)cc(Cl)c3)cc2c1`, 54%.

For the compound `COc1ccc(OC)c(S(=O)(=O)NC(=O)COc2ccc3ccc(OC)cc3c2)c1`, the Activity in data set [1] is 49%. Still for that read-out and setting: with `COc1ccc2ccc(OCC(=O)NS(=O)(=O)c3cc(C)cc(Br)c3)cc2c1` the figure was 29%.

With `O=C(COc1ccc2ccccc2c1)NS(=O)(=O)c1ccccc1F`, the Activity in data set [1] was 69%. Still for that read-out and setting: to `COc1ccc(S(=O)(=O)NC(=O)COc2ccc3ccccc3c2)cc1OC` belongs 50%. On the same count and under the same terms, with `Cc1cc(C)c(S(=O)(=O)NC(=O)CN2CCN(c3ccccn3)CC2)c(C)c1` the figure was 119%; with `Cc1cc(C)c(S(=O)(=O)NC(=O)COc2cccc3ccccc23)c(C)c1`, 94%. The same measure, in the same setting: with `COc1ccc2ccc(OCC(=O)NS(=O)(=O)c3ccc(OC)c(OC)c3)cc2c1` the figure was 23%; with `Cc1cc(Nc2ccc(C(F)(F)F)cn2)cc(S(=O)(=O)NC(=O)COc2ccc3ccccc3c2)c1`, 20%; with `Cc1ccc(S(=O)(=O)NC(=O)C(C)(C)Oc2ccc3ccccc3c2)c(C)c1`, 76%.

Take `Cc1cc(C)c(S(=O)(=O)NC(=O)CN2CCn3c(nnc3C(F)(F)F)C2)c(C)c1`: the Activity in data set [1] worked out at 104%. For the compound `Cc1ccc(S(=O)(=O)NC(=O)COc2ccc3[nH]ccc3c2)c(C)c1`, the Activity in [1] was determined as 91%. The same measure, in the same setting: to `O=C(COc1ccc2ccccc2c1)NS(=O)(=O)C1CCCCC1` belongs 81%; to `Cc1ccc(S(=O)(=O)NC(=O)COc2ccc3ccccc3c2)cc1`, 44%; to `Cc1ccc(S(=O)(=O)NC(=O)COc2ccc3cc(Cl)ccc3c2)c(C)c1`, 50%. The same measure, in the same setting: to `Cc1cc(C)c(S(=O)(=O)NC(=O)CSc2nc3ccccc3c(=O)[nH]2)c(C)c1` belongs 95%. On the same count and under the same terms, with `COc1cc2c(cc1OC)CN(CC(=O)NS(=O)(=O)c1c(C)cc(C)cc1C)CC2` the figure was 102%; with `Cc1cc(C)c(S(=O)(=O)NC(=O)COc2ccc3c(c2)NC(=O)CC3)c(C)c1`, 77%.
